Test results taken from US11912665B1, “4-(2,4,5-tris(4-chlorophenyl)-1H-imidazol-1-yl)butanoic acid as an antimicrobial compound” (KING FAISAL UNIVERSITY, priority 2023, dated 2024).

How the values were obtained:
Assay type in all cases: cell-based
Pseudomonas aeruginosa = experiment: agar plate disc-diffusion, antibacterial activity; conditions: nutrient agar, 37° C., 48 hours, DMSO zone subtracted; for inhibition zone Pseudomonas aeruginosa A: A = concentration of comp. = 10 mg/mL; for inhibition zone Pseudomonas aeruginosa B: B = concentration of comp. = 30,000 μL; for inhibition zone Pseudomonas aeruginosa C: C = concentration of comp. = 50,000 μL
Protocol: (§1) The agar plate disc-diffusion method was applied. Sterilized filter papers (6 mm in diameter) were wetted with 10 μL of a solution of 4-(2,4,5-tris(4-chlorophenyl)-1H-imidazol-1-yl)butanoic acid (V) to be tested, containing 10 mg/mL in DMSO, and the discs were allowed to air dry. The discs were then placed onto the surface of agar plates (nutrient agar for bacteria and Sabouraud's dextrose agar for fungi) seeded with the test organism. Each plate contained 15 mL of the agar medium, previously seeded with 0.2 mL of the broth culture of each organism pregrown for 18 hours. The plates were incubated at 37° C. for 48 hours, and 72 hours for fungi. The inhibition zones were measured in millimeters (mm). Discs impregnated with DMSO were used as a control, and its inhibition zone was subtracted from the tested compound actual inhibition zone.

Escherichia coli = experiment: agar plate disc-diffusion, antibacterial activity; conditions: nutrient agar, 37° C., 48 hours, DMSO zone subtracted; for inhibition zone Escherichia coli A: A = concentration of comp. = 10,000 μL; for inhibition zone Escherichia coli B: B = concentration of comp. = 30,000 μL; for inhibition zone Escherichia coli C: C = concentration of comp. = 50,000 μL
Protocol: as §1

Staphylococcus aureus = experiment: agar plate disc-diffusion, antibacterial activity; conditions: nutrient agar, 37° C., 48 hours, DMSO zone subtracted; for inhibition zone Staphylococcus aureus A: A = concentration of comp. = 10,000 μL; for inhibition zone Staphylococcus aureus B: B = concentration of comp. = 30,000 μL; for inhibition zone Staphylococcus aureus C: C = concentration of comp. = 50,000 μL
Protocol: as §1, with “Sterilized filter papers (6 mm in diameter) were wetted with 10 μL of a solution of 4-(2,4,5-tris(4-chlorophenyl)-1H-imidazol-1-yl)butanoic acid (V) to be tested, containing 10 mg/mL in DMSO, and the discs were allowed to air dry.” left out

Bacillus cereus = experiment: agar plate disc-diffusion, antibacterial activity; conditions: nutrient agar, 37° C., 48 hours, DMSO zone subtracted; for inhibition zone Bacillus Cereus B: B = concentration of comp. = 30,000 μL; for inhibition zone Bacillus Cereus C: C = concentration of comp. = 50,000 μL
Protocol: as §1, with “Sterilized filter papers (6 mm in diameter) were wetted with 10 μL of a solution of 4-(2,4,5-tris(4-chlorophenyl)-1H-imidazol-1-yl)butanoic acid (V) to be tested, containing 10 mg/mL in DMSO, and the discs were allowed to air dry.” left out

Aspergillus flavus = experiment: agar plate disc-diffusion, antifungal activity; conditions: Sabouraud's dextrose agar, 72 hours, DMSO zone subtracted; for inhibition zone Aspergillus flavus A: A = concentration of comp. = 10,000 μL; for inhibition zone Aspergillus flavus B: B = concentration of comp. = 30,000 μL; for inhibition zone Aspergillus flavus C: C = concentration of comp. = 50,000 μL
Protocol: as §1, with “Sterilized filter papers (6 mm in diameter) were wetted with 10 μL of a solution of 4-(2,4,5-tris(4-chlorophenyl)-1H-imidazol-1-yl)butanoic acid (V) to be tested, containing 10 mg/mL in DMSO, and the discs were allowed to air dry.” left out

[1] = tested on: Chrysosporium keratinophilum; experiment: agar plate disc-diffusion, antifungal activity; conditions: Sabouraud's dextrose agar, 72 hours, DMSO zone subtracted; for inhibition zone Chrysosporium keratinophilum A: A = concentration of comp. = 10,000 μL; for inhibition zone Chrysosporium keratinophilum B: B = concentration of comp. = 30,000 μL; for inhibition zone Chrysosporium keratinophilum C: C = concentration of comp. = 50,000 μL
Protocol: as §1, with “Sterilized filter papers (6 mm in diameter) were wetted with 10 μL of a solution of 4-(2,4,5-tris(4-chlorophenyl)-1H-imidazol-1-yl)butanoic acid (V) to be tested, containing 10 mg/mL in DMSO, and the discs were allowed to air dry.” left out

Structure (SMILES)	inhibition zone Pseudomonas aeruginosa A (Pseudomonas aeruginosa)	inhibition zone Pseudomonas aeruginosa B (Pseudomonas aeruginosa)	inhibition zone Pseudomonas aeruginosa C (Pseudomonas aeruginosa)	inhibition zone Escherichia coli A (Escherichia coli)	inhibition zone Escherichia coli B (Escherichia coli)	inhibition zone Escherichia coli C (Escherichia coli)	inhibition zone Staphylococcus aureus A (Staphylococcus aureus)	inhibition zone Staphylococcus aureus B (Staphylococcus aureus)	inhibition zone Staphylococcus aureus C (Staphylococcus aureus)	inhibition zone Bacillus Cereus A (Bacillus cereus)	inhibition zone Bacillus Cereus B (Bacillus cereus)	inhibition zone Bacillus Cereus C (Bacillus cereus)	inhibition zone Aspergillus flavus A (Aspergillus flavus)	inhibition zone Aspergillus flavus B (Aspergillus flavus)	inhibition zone Aspergillus flavus C (Aspergillus flavus)	inhibition zone Chrysosporium keratinophilum A [1]	inhibition zone Chrysosporium keratinophilum B [1]	inhibition zone Chrysosporium keratinophilum C [1]
O=C(O)CCCn1c(-c2ccc(Cl)cc2)nc(-c2ccc(Cl)cc2)c1-c1ccc(Cl)cc1 [V, 4-(2,4,5-tris(4-chlorophenyl)-1H-imidazol-1-yl)butanoic acid]	26 mm	31 mm	46 mm	24 mm	35 mm	51 mm	14 mm	19 mm	26 mm	19 mm	25 mm	40 mm	16 mm	22 mm	36 mm	25 mm	28 mm	49 mm
O=C(O)c1cn(C2CC2)c2cc(N3CCNCC3)c(F)cc2c1=O [Cip., ciprofloxacin]	29 mm	30 mm	53 mm	30 mm	39 mm	60 mm	42 mm	44 mm	53 mm	29 mm	31 mm	42 mm	29 mm	30 mm	42 mm	29 mm	30 mm	53 mm
